Measured values taken from US20230113037A1 (Bayer Aktiengesellschaft, priority 2019, published 2023).
“And” between values parts separate entries of the source, which are not always exact repeats. Equal values may be shown once.

Molecular target: T1, AHR (Homo sapiens, UniProt P35869)
T1 construct: U87 MG glioblastoma cells (ATCC #HTB-14) endogenously expressing AHR; endogenous in cells; host or cells: U87 MG glioblastoma cells (ATCC #HTB-14)
T1 sequence (P35869 11-848): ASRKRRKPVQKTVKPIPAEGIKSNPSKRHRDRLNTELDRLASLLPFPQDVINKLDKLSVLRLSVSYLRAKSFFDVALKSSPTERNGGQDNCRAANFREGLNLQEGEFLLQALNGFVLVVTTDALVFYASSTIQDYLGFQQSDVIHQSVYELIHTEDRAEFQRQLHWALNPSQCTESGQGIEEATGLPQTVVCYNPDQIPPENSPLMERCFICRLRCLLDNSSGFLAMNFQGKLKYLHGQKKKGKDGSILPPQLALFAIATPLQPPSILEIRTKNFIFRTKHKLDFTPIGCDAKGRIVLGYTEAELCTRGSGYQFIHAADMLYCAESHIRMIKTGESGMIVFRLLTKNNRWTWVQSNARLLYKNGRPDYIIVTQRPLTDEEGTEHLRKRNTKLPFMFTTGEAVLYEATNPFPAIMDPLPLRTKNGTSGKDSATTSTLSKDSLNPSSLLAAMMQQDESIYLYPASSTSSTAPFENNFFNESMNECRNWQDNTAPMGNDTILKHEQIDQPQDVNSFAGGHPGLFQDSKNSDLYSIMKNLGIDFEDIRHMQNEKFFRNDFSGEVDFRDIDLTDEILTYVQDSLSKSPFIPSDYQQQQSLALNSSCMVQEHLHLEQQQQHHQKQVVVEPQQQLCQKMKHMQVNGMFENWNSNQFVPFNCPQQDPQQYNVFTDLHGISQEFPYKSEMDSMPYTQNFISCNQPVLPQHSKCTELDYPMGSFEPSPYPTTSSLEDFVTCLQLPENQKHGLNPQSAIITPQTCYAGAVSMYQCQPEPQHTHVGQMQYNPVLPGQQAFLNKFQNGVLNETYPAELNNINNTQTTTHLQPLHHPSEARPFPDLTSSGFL
Experiment: In vitro assay 1: antagonism in human cell line (AHR transactivation, firefly luciferase reporter, kynurenic acid prestimulated)
Type: cell-based
Settings: AHR Antagonism Human IC50 [M]
Experimental: Examples were tested in selected biological assays one or more times. When tested more than once, data are reported as either average values or as median values, wherein • the average value, also referred to as the arithmetic mean value, represents the sum of the values obtained divided by the number of times tested, and • the median value represents the middle number of the group of values when ranked in ascending or descending order. If the number of values in the data set is odd, the median is the middle value. If the number of values in the data set is even, the median is the arithmetic mean of the two middle values.
Transactivation assays were carried out in U87 MG glioblastoma cells (ATCC #HTB-14) endogenously expressing AHR. In addition the cells were stably transfected with an AHR inducible firefly luciferase reporter gene construct that carried AHR-binding sites (DRE) in its promoter and a renilla reporter gene construct with constitutively active promoter. Kynurenic acid is an endogenous AHR activating ligand and was used to prestimulate test cells prior to testing the antagonistic properties of compounds.
As positive inhibition control cells supplemented with 150 μM kynurenic acid were incubated in presence of 5 μM Staurosporin. Normalization was done by positive and negative controls.
Firefly luciferase and Renilla activity was determined by the DualGlo Luciferase Assay System (Promega, #2920). Renilla activity was used to assess toxic effects of compounds.

SMILES	IC50	IC50 (firefly luciferase reporter) [M]
COc1ccc(-c2nc3c4cc(C5CC5)ccc4nc(N[C@@H]4CCCCNC4=O)n3n2)cc1 [Example 547, (3R)-3-{[9-cyclopropyl-2-(4-methoxyphenyl)[1,2,4]triazolo[1,5-c]quinazolin-5-yl]amino}azepan-2-one]	> 5.71e-06 M	–
CN1CC[C@@H](Nc2nc3ccccc3c3nc(-c4ccccc4OC(F)(F)F)nn23)C1=O [Example 460, (3R)-1-methyl-3-({2-[2-(trifluoromethoxy)phenyl][1,2,4]triazolo[1,5-c]quinazolin-5-yl}amino)pyrrolidin-2-one]	7.67e-08 M	–
Nc1ccc(-c2nc3c4ccccc4nc(N[C@@H]4CCCCNC4=O)n3n2)cc1 [Example 620, (3R)-3-{[2-(4-aminophenyl)[1,2,4]triazolo[1,5-c]quinazolin-5-yl]amino}azepan-2-one]	8.44e-08 M	–
CCCCC(Nc1nc2ccccc2c2nc(-c3cccc(OC(F)(F)F)c3)nn12)C(N)=O (centres unmarked) [Example 323]	> 2e-05 M and 1.32e-05 M and 8.31e-06 M	–
CCCCNC(=O)CNc1nc2ccccc2c2nc(-c3cccc(OC(F)(F)F)c3)nn12 [Example 317, N-butyl-N^2-{2-[3-(trifluoromethoxy)phenyl][1,2,4]triazolo[1,5-c]quinazolin-5-yl}glycinamide]	1.45e-07 M	–
O=C1NCCCC[C@H]1Nc1nc2ccccc2c2nc(-c3ccccc3)nn12 [Example 5, (3R)-3-[(2-phenyl[1,2,4]triazolo[1,5-c]quinazolin-5-yl)amino]azepan-2-one]	3.4e-10 M	–
Cn1cc(-c2nc3c4cccc(C(F)(F)F)c4nc(N[C@@H]4CCNC4=O)n3n2)cn1 [Example 586, (3R)-3-{[2-(1-methyl-1H-pyrazol-4-yl)-7-(trifluoromethyl)[1,2,4]triazolo[1,5-c]quinazolin-5-yl]amino}pyrrolidin-2-one]	2.79e-07 M	–
O=C1NCCCCCC1Nc1nc2ccccc2c2nc(-c3ccc(Cl)cc3OC(F)F)nn12 (centres unmarked) [Example 529, 3-({2-[4-chloro-2-(difluoromethoxy)phenyl][1,2,4]triazolo[1,5-c]quinazolin-5-yl}amino)azocan-2-one]	2.8e-09 M	–
O=C1NCCCC[C@H]1Nc1nc2cccc(Cl)c2c2nc(-c3cccc(F)c3)nn12 [Example 167, (3R)-3-{[10-chloro-2-(3-fluorophenyl)[1,2,4]triazolo[1,5-c]quinazolin-5-yl]amino}azepan-2-one]	6.39e-09 M	–
CC[C@@H](Nc1nc2ccccc2c2nc(-c3cccc(Br)c3)nn12)C(N)=O [Example 445, (2R)-2-{[2-(3-bromophenyl)[1,2,4]triazolo[1,5-c]quinazolin-5-yl]amino}butanamide]	9.27e-08 M	–
O=C1NCCCC[C@H]1Nc1nc2ccccc2c2nc(-c3ccc(Cl)cc3OC(F)F)nn12 [Example 525, (3R)-3-({2-[4-chloro-2-(difluoromethoxy)phenyl][1,2,4]triazolo[1,5-c]quinazolin-5-yl}amino)azepan-2-one]	9.92e-10 M	–
O=C1NCCCC[C@H]1Nc1nc2cccc(Br)c2c2nc(-c3cccc(F)c3)nn12 [Example 163, (3R)-3-{[10-bromo-2-(3-fluorophenyl)[1,2,4]triazolo[1,5-c]quinazolin-5-yl]amino}azepan-2-one]	2.14e-08 M	–
CCOc1ccccc1-c1nc2c3ccccc3nc(N[C@@H]3CCCCNC3=O)n2n1 [Example 198, (3R)-3-{[2-(2-ethoxyphenyl)[1,2,4]triazolo[1,5-c]quinazolin-5-yl]amino}azepan-2-one]	1.82e-06 M	–
COc1ccc(-c2nc3c4cc(OC)c(OC)cc4nc(N[C@@H]4CCCCNC4=O)n3n2)cc1 [Example 590, (3R)-3-{[8,9-dimethoxy-2-(4-methoxyphenyl)[1,2,4]triazolo[1,5-c]quinazolin-5-yl]amino}azepan-2-one]	3.65e-07 M	–
CCC[C@@H](Nc1nc2ccccc2c2nc(-c3csc(C)c3)nn12)C(=O)NC [Example 357, N-methyl-N^2-[2-(5-methylthiophen-3-yl)[1,2,4]triazolo[1,5-c]quinazolin-5-yl]-D-norvalinamide]	1.35e-09 M	–
Cn1cc(-c2nc3c4cc(C(F)(F)F)ccc4nc(N[C@@H]4CCCCNC4=O)n3n2)cn1 [Example 546, (3R)-3-{[2-(1-methyl-1H-pyrazol-4-yl)-9-(trifluoromethyl)[1,2,4]triazolo[1,5-c]quinazolin-5-yl]amino}azepan-2-one]	2.24e-06 M	–
COc1cccc(-c2nc3c4ccccc4nc(NC4CCN(C)C4=O)n3n2)c1 (centres unmarked) [Example 80, 3-{[2-(3-methoxyphenyl)[1,2,4]triazolo[1,5-c]quinazolin-5-yl]amino}-1-methylpyrrolidin-2-one]	2.53e-08 M	–
COc1cc2nc(N[C@@H]3CCCCNC3=O)n3nc(-c4cnn(C)c4)nc3c2cc1OC [Example 589, (3R)-3-{[8,9-dimethoxy-2-(1-methyl-1H-pyrazol-4-yl)[1,2,4]triazolo[1,5-c]quinazolin-5-yl]amino}azepan-2-one]	> 2e-05 M	–
COc1ccc(-c2nc3c4c(C(C)C)cccc4nc(N[C@@H]4CCCCNC4=O)n3n2)cc1 [Example 726, (3R)-3-{[2-(4-methoxyphenyl)-10-(propan-2-yl)[1,2,4]triazolo[1,5-c]quinazolin-5-yl]amino}azepan-2-one]	1.09e-05 M	–
CCNC(=O)C(CC)Nc1nc2ccccc2c2nc(-c3cccc(OC(F)(F)F)c3)nn12 (single isomer, unassigned) [Example 320, N-ethyl-2-({2-[3-(trifluoromethoxy)phenyl][1,2,4]triazolo[1,5-c]quinazolin-5-yl}amino)butanamide]	1.21e-06 M	–
O=C1NCCCC[C@H]1Nc1nc2ccccc2c2nc(-c3ccccc3Cl)nn12 [Example 58, (3R)-3-{[2-(2-chlorophenyl)[1,2,4]triazolo[1,5-c]quinazolin-5-yl]amino}azepan-2-one]	1.05e-08 M	–
COc1ccc(-c2nc3c4ccc(C5CC5)cc4nc(N[C@@H]4CCCCNC4=O)n3n2)cc1 [Example 251, (3R)-3-{[8-Cyclopropyl-2-(4-methoxyphenyl)[1,2,4]triazolo[1,5-c]quinazolin-5-yl]amino}azepan-2-one]	3.04e-07 M	–
O=C1NCCCC[C@H]1Nc1nc2cccc(C(F)(F)F)c2c2nc(-c3cccc(F)c3)nn12 [Example 171, (3R)-3-{[2-(3-fluorophenyl)-10-(trifluoromethyl)[1,2,4]triazolo[1,5-c]quinazolin-5-yl]amino}azepan-2-one]	6.2e-08 M	–
O=C1NCCCC[C@H]1Nc1nc2c(C(F)(F)F)cccc2c2nc(-c3cccc(F)c3)nn12 [Example 581, (3R)-3-{[2-(3-fluorophenyl)-7-(trifluoromethyl)[1,2,4]triazolo[1,5-c]quinazolin-5-yl]amino}azepan-2-one]	1.69e-09 M	–
C[C@@H](Nc1nc2c(C(F)(F)F)cccc2c2nc(-c3cnn(C)c3)nn12)C(=O)O [Example 869, N-[2-(1-methyl-1H-pyrazol-4-yl)-7-(trifluoromethyl)[1,2,4]triazolo[1,5-c]quinazolin-5-yl]-D-alanine]	–	> 2e-05
Cn1cc(-c2nc3c4cccc(C5(C(F)(F)F)CC5)c4nc(N[C@@H]4CNCCNC4=O)n3n2)cn1 [Example 430]	3.22e-07 M	–
